Results reported in US20240019437A1, “METHODS FOR THE DIAGNOSIS AND THE TREATMENT OF GRAFT-VERSUS-HOST DISEASE” (INSERM (INSTITUT NATIONAL DE LA SANTÉ ET DE LA RECHERCHE …, priority 2020, published 2024).

Biological target: T1, CD73 (Homo sapiens, UniProt P21589)
T1 construct: Eight different CD73-expressing DP8α TREG clones were all separately co-cultured; endogenous in cells; host or cells: CD73-expressing DP8α Treg clones (human T cell clones)
T1 sequence (P21589 27-549): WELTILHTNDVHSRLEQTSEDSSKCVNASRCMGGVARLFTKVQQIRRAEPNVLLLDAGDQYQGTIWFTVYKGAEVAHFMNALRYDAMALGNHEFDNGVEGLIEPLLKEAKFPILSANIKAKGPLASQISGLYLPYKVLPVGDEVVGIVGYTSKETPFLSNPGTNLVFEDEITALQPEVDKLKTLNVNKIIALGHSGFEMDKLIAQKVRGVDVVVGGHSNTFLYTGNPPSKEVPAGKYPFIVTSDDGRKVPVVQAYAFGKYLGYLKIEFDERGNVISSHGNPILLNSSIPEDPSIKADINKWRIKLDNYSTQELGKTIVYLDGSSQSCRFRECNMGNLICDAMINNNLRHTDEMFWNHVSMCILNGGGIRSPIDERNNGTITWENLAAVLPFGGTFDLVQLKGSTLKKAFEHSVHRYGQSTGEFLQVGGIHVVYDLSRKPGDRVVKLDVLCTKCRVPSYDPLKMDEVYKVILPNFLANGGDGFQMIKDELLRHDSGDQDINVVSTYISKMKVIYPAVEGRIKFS
Experiment: Co-culture of CD73-expressing DP8α TREG clones with VPD-stained CD4+ T cells, with or without CD73 inhibitors; proliferation as percentage of VPD LOW CD4+ T cells
Format: cell-based
Details: 1:1 co-culture, proliferation measured 6 days later; three concentrations per inhibitor; compared to no treatment

## Nc1ncnc2c1ncn2[C@@H]1O[C@H](COP(=O)([O-])CP(=O)(O)O)[C@@H](O)[C@H]1O.[Na+] [Adenosine 5′-(α,β-methylene)diphosphate sodium salt]
  Effect on suppressive function of CD73-expressing DP8α TREG clones (inhibition of CD4+ T cell proliferation): drastically impaired the suppressive function
